Data published in patent publication US7056917B2, “Drug efflux pump inhibitor” (Daiichi Pharmaceutical Co., Ltd., priority 2001, dated 2006).

Legend:
Assay type in all cases: cell-based
[1] = tested on: Pseudomonas aeruginosa PAM 1723 (a strain highly expressing MexAB-OprM drug efflux pump); experiment: Combined use of drug efflux pump inhibitor and disinfectant, broth dilution method; details: for enhancement of activity of the disinfectant on PAM 1723: combined use with 10 μg/ml of the compound of Example 26
Procedure: Effect of Combined Use of Drug Efflux Pump Inhibitor and Disinfectant
Effects of a combined use of a drug efflux pump inhibitor and alkyldiaminoethylglycine hydrochloride (AEG, trade name: Tego 51) or chlorhexidine gluconate (CHG, trade name: Hibiten) on Pseudomonas aeruginosa PAM 1723 (a strain highly expressing MexAB-OprM drug efflux pump) was determined by the broth dilution method. The compound of Example 26 was added at a final concentration of 10 μg/ml to Mueller-Hinton broth (MHB) containing a disinfectant at a concentration after 2-fold serial dilution. The amount of the test bacteria inoculated was 1×10^6 CFU/ml, and after standing cultivation at 37° C. for 18 hours, the culture was observed by visual inspection. The minimum concentration that gave no turbidity as in the control of MHB was determined as MIC.

[2] = tested on: Pseudomonas aeruginosa PAM 1723 strain highly expressing the drug efflux pump; experiment: Effect of combined use with antimicrobial agent (levofloxacin, aztreonam) on multidrug resistant Pseudomonas aeruginosa; details: 18 hours, MHB; for MPC8 AZT: minimum concentration of test compound required to enhance antibacterial activity of aztreonam at 1/8 or less of MIC; for MPC4 LVFX: minimum concentration of test compound required to enhance antibacterial activity of levofloxacin applied at 1/4 of MIC; for MPC8 LVFX: minimum concentration of test compound required to enhance antibacterial activity of levofloxacin applied at 1/8 or less of MIC
Description: Effect of Combined Use with Antimicrobial Agent on Multidrug Resistant Pseudomonas aeruginosa
As multidrug resistant Pseudomonas aeruginosa, Pseudomonas aeruginosa PAM 1723 strain highly expressing the drug efflux pump was used. As antimicrobial drugs for the combinational uses, levofloxacin (LVFX) as a quinolone antibacterial agent and aztreonam (AZT) as a monobactam antibiotic were used. Each of the compounds shown in Table 1 with Example No., which falls within the compounds of the present invention, was subjected to the measurement of its minimum concentration (μg/ml) that was required to enhance the antibacterial activity of levofloxacin when the test compound was used in combination with levofloxacin applied at a concentration of 1/4, or 1/8 or less of the minimum inhibitory concentration against the PAM 1723 strain. […] Effects as combinational uses for 18 hours was indicated for each of the drugs. Effects were determined by visually observing the turbidity of the medium. The Müller-Hinton broth (MHB, Difco) was used as a medium, and the inoculum of the bacteria was 1×10^6 CFU/ml.

[3] = tested on: Pseudomonas aeruginosa wild strain PAM 1020; experiment: Combined use of a pump inhibitor, levofloxacin (LVFX) and meropenem (MEPM) evaluated by the three-dimensional checker board method; details: for FIC index: PAM 1020
Procedure: (1) Effect of Combined Used of a Pump Inhibitor, Levofloxacin (LVFX) and Meropenem (MEPM) Evaluated by the Three-Dimensional Checker Board Method
The effect was measured by the three-dimensional checker board method by using Pseudomonas aeruginosa wild strain PAM 1020. The test strain was inoculated into Mueller-Hinton broth containing LVFX, MEPM (at 11 concentration levels and 0 μg/ml) and the compound of Example 26 (40-0.625 μg/ml and 0 μg/ml) at a concentration of 10^6 CFU/ml and cultured at 37° C. for 18 hours. Then, MIC was measured for sole and combined use. Measurement was performed by the checker board method and FIC index was calculated according to the following equation. FIC index=a/a0+b/b0+c/c0 wherein a0: MIC for Agent A used alone, a: MIC for Agent A when Agents A, B and C are used in combination, b0: MIC for Agent B used alone, b: MIC for Agent B when Agents A, B and C are used in combination, c0: MIC for Agent C used alone, c: MIC for Agent C when Agents A, B and C are used in combination.
It was determined that there was synergistic effect when FIC index was 0.75 or less, additive effect or weak synergistic effect when the index was more than 0.75 but not more than 1.125, no effect of combined use when the index was more than 1.125 but not more than 3.0, and antagonistic effect when the index was more than 3.0.

[4] = combined with compound of Example 26 at 10 μg/ml, PAM 1723, 37° C. 18 hours
[5] = compound of Example 26 at 10 μg/ml, PAM 1723
[6] = disinfectant alone, PAM 1723, 37° C. 18 hours

## N=C(NCCCCCCNC(=N)NC(=N)Nc1ccc(Cl)cc1)NC(=N)Nc1ccc(Cl)cc1.O=C(O)[C@H](O)[C@@H](O)[C@H](O)[C@H](O)CO.O=C(O)[C@H](O)[C@@H](O)[C@H](O)[C@H](O)CO [CHG, chlorhexidine gluconate]
[1]
  enhancement of activity of the disinfectant on PAM 1723: four times
[1]; [4]
  MIC CHG Combined use: 4 µg/mL
[1]; [5]
  CHG Ratio of MIC values for single use of the disinfectant and combined use with the compound of Example 26: 4
[1]; [6]
  MIC CHG Single use: 16 µg/mL

## CC(C)c1csc(/C=C/c2ccn3c(=O)c(/C=C/c4nnn[nH]4)c(N4CCCC(O)C4)nc3c2)n1 (stereo not drawn) [Example 104, 2-(3-Hydroxypiperidino)-8-[(E)-2-(4-isopropyl-1,3-thiazol-2-yl)-1-ethenyl]-3-[(E)-2-(1H-1,2,3,4-tetrazol-5-yl)-1-ethenyl]-4H-pyrido[1,2-a]pyrimidin-4-one]
[2]
  MPC8 AZT: 0.5 µg/mL
  MPC4 LVFX: 0.24 µg/mL
  MPC8 LVFX: 1 µg/mL

## CC(C)c1csc(CCc2ccn3c(=O)c(/C=C/C(=O)NS(C)(=O)=O)c(N4CCOCC4)nc3c2)n1 [Example 98, N-((E)-3-{8-[2-(4-Isopropyl-1,3-thiazol-2-yl)ethyl]-2-morpholino-4-oxo-4H -pyrido[1,2-a]pyrimidin-3-yl}-2-propenoyl)methanesulfonamide]
[2]
  MPC8 AZT: 4 µg/mL
  MPC4 LVFX: 1 µg/mL
  MPC8 LVFX: 4 µg/mL

## CC(C)c1csc(CCc2ccn3c(=O)c(/C=C/C(=O)O)c(SCC(N)=O)nc3c2)n1 [Example 152, (E)-3-{2-Aminocarbonylmethylthio-8-[2-(4-isopropyl-1,3-thiazol-2-yl)-ethyl]-4-oxo-4H-pyrido[1,2-a]pyrimidin-3-yl}-2-propenoic acid]
[2]
  MPC8 AZT: 4 µg/mL
  MPC4 LVFX: 2 µg/mL
  MPC8 LVFX: 8 µg/mL

## CC(C)(C)c1csc(NC(=O)c2ccn3c(=O)c(-c4nnn[nH]4)cnc3c2)n1 [Example 10, N8-[4-(tert-Butyl)-1,3-thiazol-2-yl]-4-oxo-3-(2H-1,2,3,4-tetrazol-5-yl)-4H-pyrido[1,2-a]pyrimidine-8-carboxamide]
[2]
  MPC8 AZT: 4 µg/mL
  MPC4 LVFX: 2 µg/mL
  MPC8 LVFX: 16 µg/mL

## CC(C)c1csc(CCc2ccn3c(=O)c(/C=C/C(=O)[O-])c(N4CCN(C(=O)C[N+]56CCC(CC5)CC6)CC4)nc3c2)n1 [Example 94, (E)-3-{2-4-[2-(1-Azabicyclo[2.2.2]oct-1-yl)acetyl]piperazino-8-[2-(4-isopropyl-1,3-thiazol-2-yl)ethyl]-4-oxo-4H-pyrido[1,2-a]pyrimidin-3-yl}-2-propenoic acid]
[2]
  MPC8 AZT: 16 µg/mL
  MPC4 LVFX: 4 µg/mL
  MPC8 LVFX: 16 µg/mL

## alkyldiaminoethylglycine hydrochloride [AEG]
[1]
  enhancement of activity of the disinfectant on PAM 1723: two times
[1]; [4]
  MIC AEG Combined use: 32 µg/mL
[1]; [5]
  AEG Ratio of MIC values for single use of the disinfectant and combined use with the compound of Example 26: 2
[1]; [6]
  MIC AEG Single use: 64 µg/mL

## CC(C)c1csc(CCc2ccn3c(=O)c(/C=C4/SC(=O)NC4=O)c(N4CCOCC4)nc3c2)n1 [Example 141, 5-(1-{8-[2-(4-Isopropyl-1,3-thiazol-2-yl)ethyl]-2-morpholino-4-oxo-4H-pyrido[1,2-a]pyrimidin-3-yl}methylidene)-1,3-thiazolidine-2,4-dione]
[2]
  MPC8 AZT: 2 µg/mL
  MPC4 LVFX: 0.25 µg/mL
  MPC8 LVFX: 16 µg/mL

## CC(C)c1csc(CCc2ccn3c(=O)c(/C=C/C(=O)O)c(N4CCCC(O)C4)nc3c2)n1 (stereo not drawn) [Example 26]
[3]; LVFX + MEPM 0.016 μg/ml + compound of Example 26 0.625 μg/ml
  FIC index: 1.039
[3]; LVFX + MEPM 0.016 μg/ml + compound of Example 26 1.25 μg/ml
  FIC index: 1.047
[3]; LVFX + MEPM 0.016 μg/ml + compound of Example 26 2.5 μg/ml
  FIC index: 1.063
[3]; LVFX + MEPM 0.016 μg/ml + compound of Example 26 5 μg/ml
  FIC index: 0.594
[3]; LVFX + MEPM 0.016 μg/ml + compound of Example 26 10 μg/ml
  FIC index: 0.656
[3]; LVFX + MEPM 0.016 μg/ml + compound of Example 26 20 μg/ml
  FIC index: 0.781
[3]; LVFX + MEPM 0.016 μg/ml + compound of Example 26 40 μg/ml
  FIC index: 1.031
[3]; LVFX + MEPM 0.0313 μg/ml + compound of Example 26 0.625 μg/ml
  FIC index: 1.07
[3]; LVFX + MEPM 0.0313 μg/ml + compound of Example 26 1.25 μg/ml
  FIC index: 1.078
[3]; LVFX + MEPM 0.0313 μg/ml + compound of Example 26 2.5 μg/ml
  FIC index: 0.5938
[3]; LVFX + MEPM 0.0313 μg/ml + compound of Example 26 5 μg/ml
  FIC index: 0.625
[3]; LVFX + MEPM 0.0313 μg/ml + compound of Example 26 10 μg/ml
  FIC index: 0.6875
[3]; LVFX + MEPM 0.0313 μg/ml + compound of Example 26 20 μg/ml
  FIC index: 0.8125
[3]; LVFX + MEPM 0.0313 μg/ml + compound of Example 26 40 μg/ml
  FIC index: 1.0625
[3]; LVFX + MEPM 0.0625 μg/ml + compound of Example 26 0.625 μg/ml
  FIC index: 1.133
[3]; LVFX + MEPM 0.0625 μg/ml + compound of Example 26 1.25 μg/ml
  FIC index: 0.641
[3]; LVFX + MEPM 0.0625 μg/ml + compound of Example 26 2.5 μg/ml
  FIC index: 0.656
[3]; LVFX + MEPM 0.0625 μg/ml + compound of Example 26 5 μg/ml
  FIC index: 0.438
[3]; LVFX + MEPM 0.0625 μg/ml + compound of Example 26 10 μg/ml
  FIC index: 0.500
[3]; LVFX + MEPM 0.0625 μg/ml + compound of Example 26 20 μg/ml
  FIC index: 0.500
[3]; LVFX + MEPM 0.0625 μg/ml + compound of Example 26 40 μg/ml
  FIC index: 0.750
[3]; LVFX + MEPM 0.125 μg/ml + compound of Example 26 0.625 μg/ml
  FIC index: 0.781
[3]; LVFX + MEPM 0.125 μg/ml + compound of Example 26 1.25 μg/ml
  FIC index: 0.563
[3]; LVFX + MEPM 0.125 μg/ml + compound of Example 26 2.5 μg/ml
  FIC index: 0.500
[3]; LVFX + MEPM 0.125 μg/ml + compound of Example 26 5 μg/ml
  FIC index: 0.563
[3]; LVFX + MEPM 0.125 μg/ml + compound of Example 26 10 μg/ml
  FIC index: 0.766
[3]; LVFX + MEPM 0.25 μg/ml + compound of Example 26 0.625 μg/ml
  FIC index: 1.063
[3]; Pseudomonas aeruginosa, agent used alone, PAM 1020 strain
  MIC: ≥ 80 µg/mL
[2]
  MPC8 AZT: 1 µg/mL
  MPC4 LVFX: 0.25 µg/mL
  MPC8 LVFX: 1 µg/mL

## CC(C)c1csc(CCc2ccn3c(=O)c(/C=C/C(=O)O)c(-c4ccncc4)nc3c2)n1 [Example 130]
[2]
  MPC8 AZT: 8 µg/mL
  MPC4 LVFX: 2 µg/mL
  MPC8 LVFX: 8 µg/mL
